# Results as given in US7592326B2, “Method for stimulating the immune, inflammatory or neuroprotective response” (priority 2004, dated 2009).
# Legend:
# ERK = test: Western blot signaling in human macrophages: ERK; type: cell-based
# Method: Preparation of macrophages was performed as previously described (Akagawa et al., 1996). Briefly, fully differentiated macrophages from human PBMC were isolated from leukapheresis preparations obtained by the Blood Bank, Clinical Center, National Institutes of Health, Bethesda, Md. The leukocyte-rich preparation was overlaid on Accu-prep in 50 ml tubes and the tubes were centrifuged at 800 × g for 20 min at room temperature. PBMC fractions were collected, washed once with PBS at room temperature and twice with complete medium at 4° C. and resuspended in the same medium. Monocytes were further purified by using iso-osmotic Percoll gradient (Amersham Biosciences). At this stage, the purity of monocytes was higher than 90%. One and half million cells were placed on a 12-well plate in 1.5 ml RPMI1640 containing 50 ng/ml human M-CSF. On day 4, 1 ml of the medium was replaced with 1 ml of fresh medium containing 50 ng human M-CSF. On day 7, non-adherent cells were washed out and adherent cells were used as macrophages.
# Western blot analysis of macrophages was performed as previously described (Matsuyama et al., 2003). Briefly, prepared macrophages were starved in RPMI 1640 without FCS for 10 h. Cells were rinsed three times with PBS, and treated with cyclic dinucleotide for various times. Cells were lysed on ice for 20 min in a buffer containing 50 mM NaCl, 20 mM Tris-HCl, 50 mM sodium fluoride, 30 mM Na4P207, 5 mM EGTA, 3 mM sodium orthovanadate, 1% Triton X-100, 1 mg/ml leupeptin, 1 mM PMSF, 1 mg/ml aprotinin, 1 mg/ml pepstatin A and 100 mM sodium orthovanadate pre-treated with H202. The lysates were spun in a microcentrifuge for 20 min and the supernatants were collected. Proteins were analyzed on 12% polyacrylamide gels by SDS-PAGE and transferred electrophoretically to nitrocellulose membranes at 150 mA for 1 h in a semi-dry system. The membranes were incubated with an antibody against either phosphorylated or nonphosphorylated p38 MAP kinase or ERK, followed by an appropriate secondary Ab coupled with horseradish peroxidase. […]
# [1] = system: K. pneumoniae strain 43816, serotype 2; test: Survival in murine Klebsiella pneumonia; type: in vivo
# [2] = system: C. albicans strain SC5314; test: Systemic C. albicans infection in mice (proposed); type: in vivo, Candida albicans; details: A/J and C57BL/6J mice, 3×10^5 blastospores i.v.
# Method: To show the efficacy of c-di-GMP in inhibiting C. albicans infection, 8- to 12-week-old A/J and C57BL/6J mice are infected with C. albicans strain SC5314. The blastospores are washed twice in phosphate-buffered saline (PBS) and resuspended in PBS at the required density. For experimental infections, A/J and C57BL/6J mice are inoculated via the tail vein with 200 μl of a suspension containing 3×10^5 C. albicans blastospores in PBS. One group of mice will be pretreated with c-di-GMP (intranasally, i.p., i.m., s.q.). Mice are to be closely monitored for clinical signs of disease, such as lethargy, loss of appetite, hunched back, and ruffled fur.
# The levels of TNF-α and IL-6 in tissue extracts are determined using “two-site sandwich” assays with commercially available enzyme-linked immunosorbent assay (ELISA) kits (BD Biosciences). Tissue extracts are prepared by homogenization in lysis buffer (20 mM Tris [pH 7.5], 0.3 M NaCl, 2% sodium deoxycholate, 2% Triton X-100, protease inhibitor cocktail [Roche Diagnostics]). Additional determinations of the levels of 32 cytokines and chemokines are carried out by using cardiac tissue extracts and RayBio mouse cytokine array II membranes (RayBiotech Inc., Norcross, Ga.). […] All values are normalized to the protein content and determined using the Bradford reagent.
structure (smiles),measurement,setting,value
"Nc1nc(=O)c2ncn([C@@H]3OC4COP(=O)(O)O[C@H]5[C@@H](O)[C@H](n6cnc7c(=O)nc(N)[nH]c76)O[C@@H]5COP(=O)(O)OC4C3O)c2[nH]1 (stereo partly shown) [c-di-GMP, Bis(3′→5′)-cyclic diguanylic acid]",ERK phosphorylation,"ERK; 10- and 100 uM, human macrophages, FIG. 13B",activate
same,time of peak ERK phosphorylation,ERK; absent at 20 min,5 min
same,magnitude of ERK phosphorylation relative to LPS,ERK; under the conditions tested,weaker
same,survival following i.t. Klebsiella challenge,"[1]; 200 nmoles i.n. 48 and 24 hrs prior, Balb/c mice, vehicle approx. 10%, p<0.05, FIG. 15",significantly increased
same,survival following i.t. Klebsiella challenge,"[1]; 200 nmoles s.q. 48 and 24 hrs prior, Balb/c mice, p<0.05, FIG. 15",significantly increased
same,survival following i.t. Klebsiella challenge,"[1]; given concomitantly and 6 hrs post K. pneumoniae, data not shown",no increase in survival
same,clinical outcome,[2],less mortality
